Values joined by “and” are separate entries in the source; they are usually repeats but may differ in a detail not shown here. Equal entries are not always repeated. Toxic doses and inconclusive results are not listed.
System: L1210 leukemia ip in BDF1 mice, survival T/C
Assay: NCI In Vivo Anticancer Drug Screen. Data for tumor model L1210 Leukemia (intraperitoneal) in B6D2F1 (BDF1) mice
Settings: endpoint: mean survival time, higher = longer survival
Method in brief: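 Transplanted-tumor mice were given test agent; controls received vehicle only. Survival readings from the two groups were divided (treated over control).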

[1] = dose: 200.0 mg/kg/injection, schedule: Q01DX009 (ip), vehicle: saline
[2] = dose: 100.0 mg/kg/injection, schedule: Q04DX002 (ip), vehicle: Klucel (hydroxypropylcellulose) (HPC)
[3] = dose: 200.0 mg/kg/injection, schedule: Q04DX002 (ip), vehicle: Klucel (hydroxypropylcellulose) (HPC)
[4] = dose: 400.0 mg/kg/injection, schedule: Q04DX002 (ip), vehicle: Klucel (hydroxypropylcellulose) (HPC)
[5] = dose: 100.0 mg/kg/injection, schedule: Q01DX001 (ip), vehicle: saline
[6] = dose: 200.0 mg/kg/injection, schedule: Q01DX001 (ip), vehicle: saline
[7] = dose: 400.0 mg/kg/injection, schedule: Q01DX001 (ip), vehicle: saline
[8] = dose: 100.0 mg/kg/injection, schedule: Q04DX003 (ip), vehicle: saline
[9] = dose: 200.0 mg/kg/injection, schedule: Q04DX003 (ip), vehicle: saline
[10] = dose: 400.0 mg/kg/injection, schedule: Q04DX003 (ip), vehicle: saline
[11] = dose: 100.0 mg/kg/injection, schedule: Q01DX009 (ip), vehicle: saline

With `C=C(Br)CNC(=O)C(C(F)(F)F)C(F)(F)F` the T/C (dose: 12.5 mg/kg/injection, schedule: Q01DX009 (ip), vehicle: Klucel (hydroxypropylcellulose) (HPC)) was 95 % of control, the T/C (dose: 12.5 mg/kg/injection, schedule: Q04DX003 (ip), vehicle: Klucel (hydroxypropylcellulose) (HPC)) was 96 % of control and the T/C (dose: 25.0 mg/kg/injection, schedule: Q01DX009 (ip), vehicle: Klucel (hydroxypropylcellulose) (HPC)) was 97 % of control. For the same compound, the T/C (dose: 25.0 mg/kg/injection, schedule: Q04DX003 (ip), vehicle: Klucel (hydroxypropylcellulose) (HPC)) was 98 % of control, the T/C (dose: 50.0 mg/kg/injection, schedule: Q01DX009 (ip), vehicle: Klucel (hydroxypropylcellulose) (HPC)) was 95 % of control and the T/C (dose: 50.0 mg/kg/injection, schedule: Q04DX003 (ip), vehicle: Klucel (hydroxypropylcellulose) (HPC)) was 96 % of control.

For `CC1(C)CN1P(=S)(N1CC1(C)C)N1CC1(C)C` (centres undefined), the T/C (dose: 12.5 mg/kg/injection, schedule: Q01DX009 (ip), vehicle: saline) was 98 % of control, the T/C (dose: 14.0 mg/kg/injection, schedule: Q01DX009 (ip), vehicle: saline) was 109 % of control and the T/C (dose: 22.0 mg/kg/injection, schedule: Q01DX009 (ip), vehicle: saline) was 112 % of control. The T/C (dose: 25.0 mg/kg/injection, schedule: Q01DX009 (ip), vehicle: saline) was 94 % of control, the T/C (dose: 33.0 mg/kg/injection, schedule: Q01DX009 (ip), vehicle: saline) was 152 % of control and the T/C (dose: 44.0 mg/kg/injection, schedule: Q01DX001 (ip), vehicle: other) was 121 % of control. For the same compound, the T/C (dose: 100.0 mg/kg/injection, schedule: Q01DX001 (ip), vehicle: carboxymethylcellulose (CMC)) was 166 % of control and 169 % of control, the T/C (dose: 100.0 mg/kg/injection, schedule: Q01DX001 (ip), vehicle: other) was 153 % of control and the T/C (dose: 150.0 mg/kg/injection, schedule: Q01DX001 (ip), vehicle: other) was 158 % of control. For the same compound, the T/C (dose: 200.0 mg/kg/injection, schedule: Q01DX001 (ip), vehicle: carboxymethylcellulose (CMC)) was 164 % of control and the T/C [1] was 120 % of control.

With `C=C(Br)CSC#N` the T/C (dose: 12.5 mg/kg/injection, schedule: Q01DX009 (ip), vehicle: saline with Tween-80) was 93 % of control, the T/C (dose: 25.0 mg/kg/injection, schedule: Q01DX009 (ip), vehicle: saline with Tween-80) was 102 % of control and the T/C (dose: 50.0 mg/kg/injection, schedule: Q01DX009 (ip), vehicle: saline with Tween-80) was 89 % of control.

With `CN1C(=O)N(C)C(=O)C2(C1=O)C1(C(=O)N(C)C(=O)N(C)C1=O)C21C(=O)N(C)C(=O)N(C)C1=O` the T/C [2] was 102 % of control, the T/C [3] was 100 % of control and the T/C [4] was 89 % of control.

For `CCN(CCN)c1cccc(C)c1`, the T/C (dose: 100.0 mg/kg/injection, schedule: Q04DX003 (ip), vehicle: saline sonified) was 92 % of control.

In the case of `C[C@]12CC[C@@H]3c4ccccc4CC[C@H]3[C@@H]1CC[C@@H]2O`, the T/C (dose: 62.5 mg/kg/injection, schedule: Q01DX015 (sc), vehicle: steriod suspending solution) is reported as 97 % of control, the T/C (dose: 125.0 mg/kg/injection, schedule: Q01DX015 (sc), vehicle: steriod suspending solution) is reported as 101 % of control and the T/C (dose: 250.0 mg/kg/injection, schedule: Q01DX015 (sc), vehicle: steriod suspending solution) is reported as 100 % of control. For the same compound, the T/C (dose: 500.0 mg/kg/injection, schedule: Q01DX015 (sc), vehicle: steriod suspending solution) was 100 % of control.

With `O=C(OCC1OC(n2ccc(=O)nc2[Se])C(OC(=O)c2ccccc2)C1OC(=O)c1ccccc1)c1ccccc1` (centres undefined) the T/C (dose: 100.0 mg/kg/injection, schedule: Q01DX005 (ip), vehicle: saline) was 89 % of control and the T/C (dose: 200.0 mg/kg/injection, schedule: Q01DX005 (ip), vehicle: saline) was 96 % of control.

With `Cn1nnc(CCCl)n1` the T/C [5] was 110 % of control, the T/C [6] was 91 % of control and the T/C [7] was 95 % of control.

`Cc1ccc(C(=O)CCCN2CCOCC2)c(C)c1` was tested, and the T/C (dose: 5.0 mg/kg/injection, schedule: Q01DX001 (ip), vehicle: saline) was 105 % of control, the T/C (dose: 10.0 mg/kg/injection, schedule: Q01DX001 (ip), vehicle: saline) was 97 % of control and the T/C (dose: 20.0 mg/kg/injection, schedule: Q01DX001 (ip), vehicle: saline) was 94 % of control. The T/C (dose: 40.0 mg/kg/injection, schedule: Q01DX001 (ip), vehicle: saline) was 108 % of control, the T/C (dose: 80.0 mg/kg/injection, schedule: Q01DX001 (ip), vehicle: saline) was 100 % of control and the T/C [6] was 95 % of control.

For `CC(C)N(C(=S)[S-])C(C)C.CC(C)N(C(=S)[S-])C(C)C.[Zn]`, the T/C (dose: 37.5 mg/kg/injection, schedule: Q01DX009 (ip), vehicle: saline) was 89 % of control, the T/C (dose: 75.0 mg/kg/injection, schedule: Q01DX001 (ip), vehicle: acetone) was 97 % of control and the T/C (dose: 75.0 mg/kg/injection, schedule: Q01DX009 (ip), vehicle: saline) was 90 % of control. The T/C (dose: 75.0 mg/kg/injection, schedule: Q04DX003 (ip), vehicle: saline) was 101 % of control, the T/C (dose: 150.0 mg/kg/injection, schedule: Q01DX001 (ip), vehicle: acetone) was 92 % of control and the T/C (dose: 150.0 mg/kg/injection, schedule: Q01DX009 (ip), vehicle: saline) was 86 % of control. For the same compound, the T/C (dose: 150.0 mg/kg/injection, schedule: Q04DX003 (ip), vehicle: saline) was 90 % of control, the T/C (dose: 300.0 mg/kg/injection, schedule: Q01DX001 (ip), vehicle: acetone) was 93 % of control and the T/C (dose: 300.0 mg/kg/injection, schedule: Q04DX003 (ip), vehicle: saline) was 86 % of control.

For `CN(N)C(=O)Nc1ccc(Cl)c(Cl)c1`, the T/C (dose: 75.0 mg/kg/injection, schedule: Q01DX001 (ip), vehicle: carboxymethylcellulose (CMC)) was 110 % of control and the T/C (dose: 150.0 mg/kg/injection, schedule: Q01DX001 (ip), vehicle: carboxymethylcellulose (CMC)) was 113 % of control.

In the case of `O=C(NC1CCCCC1)C1C2CC3OC(=O)C1C3C2` (centres undefined), the T/C (dose: 100.0 mg/kg/injection, schedule: Q04DX003 (ip), vehicle: saline with Tween-80) is reported as 101 % of control, the T/C [8] is reported as 104 % of control and the T/C (dose: 200.0 mg/kg/injection, schedule: Q04DX003 (ip), vehicle: saline with Tween-80) is reported as 97 % of control. The T/C [9] was 98 % of control, the T/C (dose: 400.0 mg/kg/injection, schedule: Q04DX003 (ip), vehicle: saline with Tween-80) was 101 % of control and the T/C [10] was 104 % of control.

In the case of `N#CC1C(=O)NC(=O)C(C#N)C12CCCC(C(F)(F)F)C2` (centres undefined), the T/C (dose: 50.0 mg/kg/injection, schedule: Q01DX001 (ip), vehicle: saline) is reported as 104 % of control, the T/C [5] is reported as 98 % of control and the T/C [6] is reported as 106 % of control. The T/C [7] was 98 % of control.

`Oc1ccc(-c2nnc(-c3ccc(O)cc3)nn2)cc1` was tested, and the T/C [2] was 91 % of control, the T/C [3] was 94 % of control and the T/C [4] was 102 % of control.

With `[CH3][Sb]1([CH3])([CH3])[O]S(=O)(=O)[O]1` the T/C (dose: 75.0 mg/kg/injection, schedule: Q01DX001 (ip), vehicle: saline) was 97 % of control, the T/C (dose: 150.0 mg/kg/injection, schedule: Q01DX001 (ip), vehicle: saline) was 102 % of control and the T/C (dose: 300.0 mg/kg/injection, schedule: Q01DX001 (ip), vehicle: saline) was 105 % of control.

`Nc1c(Cl)[nH]cnc1=S` was tested, and the T/C (dose: 224.0 mg/kg/injection, schedule: Q01DX Z (ip), vehicle: methylcellulose (MC)) was 98 % of control, the T/C (dose: 334.0 mg/kg/injection, schedule: Q01DX Z (ip), vehicle: methylcellulose (MC)) was 94 % of control and the T/C (dose: 500.0 mg/kg/injection, schedule: Q01DX Z (ip), vehicle: methylcellulose (MC)) was 94 % of control. For the same compound, the T/C (dose: 750.0 mg/kg/injection, schedule: Q01DX Z (ip), vehicle: methylcellulose (MC)) was 94 % of control.

For `Cc1ccc[nH]c1=O`, the T/C (dose: 50.0 mg/kg/injection, schedule: Q01DX009 (ip), vehicle: saline) was 95 % of control, the T/C [11] was 93 % of control and the T/C [8] was 107 % of control. For the same compound, the T/C [1] was 91 % of control and the T/C [9] was 109 % of control.

For `c1ccc(COB(OCc2ccccc2)OCc2ccccc2)cc1`, the T/C [11] was 110 % of control, the T/C [8] was 105 % of control and the T/C [1] was 104 % of control. For the same compound, the T/C [9] was 102 % of control, the T/C (dose: 400.0 mg/kg/injection, schedule: Q01DX009 (ip), vehicle: saline) was 96 % of control and the T/C [10] was 96 % of control.

`CC(=O)OC1CCC2(COS(=O)(=O)c3ccc(C)cc3)C(=CCC3C2CCC2(C)C(C(C)CCCC(C)C)CCC32)C1` (centres undefined) was tested, and the T/C (dose: 100.0 mg/kg/injection, schedule: Q04DX002 (ip), vehicle: steriod suspending solution) was 101 % of control, the T/C (dose: 200.0 mg/kg/injection, schedule: Q04DX002 (ip), vehicle: steriod suspending solution) was 104 % of control and the T/C (dose: 400.0 mg/kg/injection, schedule: Q04DX002 (ip), vehicle: steriod suspending solution) was 96 % of control.

Reference: PubChem BioAssay AID248 (DTP/NCI, 2004)
